PMC4449006, “Targeting KRAS Oncogene in Colon Cancer Cells with 7-Carboxylate Indolo[3,2-b]quinoline Tri-Alkylamine Derivatives” (PLoS ONE, 2015)
Structures can show the parent of a compound that is named as a salt.

Columns and labels:
[1] = tested on: T-Loop duplex DNA; test: FRET melting assay, duplex DNA; type: binding; conditions: standard deviation < 0.2°C; for ΔTm (°C) T-Loop 1 μM: 1 μM compound; for ΔTm (°C) T-Loop 2 μM: 2 μM compound
Experimental: (§1) The capacity of compounds 1a-d, 2a-d and the standard G4 ligand TMPyP4 (Fig 1) to bind and stabilize KRAS [26] and HSP90A [27] G4 DNA structures as well as duplex DNA (T-loop) was evaluated by a Fluorescence Resonance Energy Transfer (FRET) melting assay. […] It was observed that the basicity of side chains correlates positively with thermal G4 stabilization of all DNA sequences up to an optimal pKa ~ 8.0–9.0 (Fig 2). Heterocyclic amines at the end of alkyl side chain (1b and 2b) appear to improve binding to G4s and complex stabilization compared to the di-ethylamine group (1a and 2a), which cannot be explained by differences in basicity between terminal groups. […] However, this was not observed for the isomeric pair 1a / 2a.
(§2) All oligonucleotides were purchased from Eurofins MWG Synthesis GmbH, Germany. The labeled oligonucleotides used in the FRET assays had attached the donor fluorophore FAM (6-carboxyfluorescein) and the acceptor fluorophore TAMRA (6-carboxytetramethylrhodamine): KRAS21R (5’-FAM-[…]-TAMRA-3’); HSP90A (5’- [FAM]-[…]-[TAMRA]-3’); T-Loop (5’-FAM-[…]-TAMRA-3’). Each oligonucleotide was initially diluted to a storage solution at 100 μM in nuclease free water (not DEPC-treated), purchased from Ambion Applied Biosystems UK.
(§3) The ability of IQ3A and TMPyP4 to stabilize G-quadruplex and duplex DNA sequences was investigated using a Fluorescence Resonance Energy Transfer (FRET) assay. Stock solution of the oligonucleotides sequences at 20 μM and subsequent dilutions were obtained from storage solutions diluting with K-cacodylate buffer pH = 7.4, containing 60 mM K^+ (10 mM potassium cacodylate, 50 mM KCl). The FRET probe sequences were diluted from stock to the correct concentration (0.4 μM) and then annealed by heating to 95°C for 10 min, followed by cooling to RT. Test compounds were prepared as 1 mM in 10% DMSO and 10% 1mM HCl in HPLC-grade water. The rest of the dilutions were performed using FRET buffer. Annealed DNA (50 μL) and compound solution (50 μL) were distributed across 96-well RT-PCR plates (BioRad; MJ Research, Waltham, MA, USA). Relevant controls were also performed to check for interference with the assay. Fluorescence readings were made on a DNA Engine Opticon (MJ Research) with excitation at 450–495 nm and detection at 515–545 nm, taken at intervals of 0.5°C in the range 30–100°C, with a constant temperature being maintained for 30 s prior to each reading to ensure a stable value. Experiments were performed in triplicate. Final analysis of the data was carried out with GraphPad Prism 5.0 software (GraphPad Software, Inc). The advanced curve-fitting function in GraphPad Prism was used for calculation of ΔT m values and associated standard deviations.

[2] = tested on: HSP90A G-quadruplex DNA; test: FRET melting assay, HSP90A G-quadruplex DNA; type: binding; conditions: standard deviation < 0.2°C; for ΔTm (°C) HSP90A 1 μM: 1 μM compound; for ΔTm (°C) HSP90A 2 μM: 2 μM compound
Experimental: as §1, §2, §3

[3] = tested on: KRAS21 G-quadruplex DNA; test: FRET melting assay, KRAS G-quadruplex DNA; type: binding; conditions: standard deviation < 0.2°C; for ΔTm (°C) KRAS21 1 μM: 1 μM compound; for ΔTm (°C) KRAS21 2 μM: 2 μM compound
Experimental: as §1, §2, §3

[4] = tested on: HCT116 cells; design: method as in PMID 23960016; conditions: HCT116 vs primary rat hepatocytes; cited from earlier work
[5] = tested on: HEK293T cells; test: MTS short-term cytotoxicity assay (72 h), HEK293T; type: cell-based, human; conditions: MTS; for IC50: Homo sapiens, HEK-293T, standard errors ≤ 0.1, read-out: HEK293T IC50; for HEK293T IC65: standard errors ≤ 0.1
Experimental: (§4) The short-term effect of compounds at 72 h on cell growth was studied using colorectal carcinoma cell lines with different KRAS and TP53 genotypes: human colorectal carcinoma HCT116 (mut Kras, wild-type (wt) p53), and human metastatic colorectal adenocarcinoma SW620 (mut Kras, mut p53). In parallel, we also used the immortalized human embryonic kidney cell line HEK293T (wt Kras, wt p53) and normal human colon fibroblast cells CCD18co (wt Kras, wt p53).
(§5) SW620 human colorectal adenocarcinoma cells (European Collection of Cell Cultures, ECACC, Porton Down, Wiltshire, UK), HEK293T human embryonic kidney cells (ATCC, LGC Standards, UK) HCT116 human colon carcinoma cells (ECACC), HCT116 p53(+/+) and p53(−/−) isogenic human colon cancer cells (GRCF Cell Center and Biorepository, the Johns Hopkins University, School of Medicine, Baltimore, MD, USA), were grown in Dulbecco’s modified Eagle’s medium (DMEM) supplemented with 10% fetal bovine serum, and 1% antibiotic/antimycotic (Invitrogen, Grand Island, NY, USA), CCD18co human colon fibroblasts (ATCC, CRL-1459) were grown in Minimum Essential Medium (MEM) supplemented with 10% fetal bovine serum, 1% antibiotic/antimycotic, 2 mM GlutaMAX, 0,1 mM Non-essential amino acids (NEAA) (Invitrogen) and […] Recombinant Human TNF-α (Peprotech, USA) and maintained at 37°C in a humidified atmosphere of 5% CO2.
(§6) Cell viability was evaluated by the tetrazolium dye (MTS) Short-Term Cytotoxicity Assay. […] Following 72 h of compound exposure, cell viability was evaluated using the CellTiter 96 AQueous Non-Radioactive Cell Proliferation Assay (Promega, Madison, WI, USA), using 3-(4,5-dimethylthiazol-2-yl)-5-(3-carboxymethoxyphenyl)-2-(4-sulfophenyl)-2H-tetrazolium, inner salt (MTS) as previously described [35]. Cell viability data were expressed as mean ±SD from at least three independent experiments. IC50 and IC65 values were determined using GaphPad Prism v.5.00 (GraphPad Software). In selected experiments, cell viability was also assessed by trypan blue exclusion assay, and general cell death by LDH activity from cell culture supernatants.

[6] = tested on: KRAS mRNA; test: KRAS mRNA steady-state levels by Taqman Real-time RT-PCR; conditions: IC50 concentrations
[7] = tested on: SW620 cells; test: MTS short-term cytotoxicity assay (72 h), SW620; type: cell-based; conditions: for SW620 IC65 / IC50: 72 h, MTS, standard errors ≤ 0.1; for IC50: Homo sapiens, SW-620, read-out: SW620 IC50
Experimental: as §4, §5, §6

[8] = tested on: CCD18co cells; test: MTS short-term cytotoxicity assay (72 h), CCD18co; type: cell-based; conditions: Homo sapiens, CCD-18Co, MTS, standard errors ≤ 0.1, read-out: CCD18co IC50
Experimental: as §4, §5, §6

[9] = tested on: HCT116 cells; test: MTS short-term cytotoxicity assay (72 h), HCT116; type: cell-based, human; conditions: for HCT116 IC65 / IC50: 72 h, MTS, standard errors ≤ 0.1; for Selective index (SI) = IC50 CCD-18co / IC50 HCT116: CCD18co vs HCT116; for IC50: Homo sapiens, HCT-116, read-out: HCT116 IC50
Experimental: as §4, §5, §6

[10] = tested on: SW620 cells; test: Guava ViaCount assay, SW620; type: cell-based, human; conditions: SW620, 72 h, IC50 and IC65 concentrations
Source text: Subsequently, the Guava ViaCount assay was used to evaluate the effects of IQ3A compounds on cell death induction in cancer (HCT116 and SW620) and non-malignant (HEK293T and CCD18co) cells, compared to 5-FU and TMPyP4 at equitoxic concentrations (IC50 and IC65). Down-regulation of mutant KRAS expression by antisense oligonucleotides in colorectal cancer cells,[8],[30] and by a MAZ-binding oligonucleotide decoy in pancreatic cancer cells has been associated with increased apoptosis and cell growth arrest. Also, anticancer drugs, such as 5-FU and G4 stabilizers of telomeric and oncogene promoter sequences such as TMPyP4, are known to induce a generalized cell response leading to cell growth arrest and cell death by apoptosis (DNA damage response),[32], which involves activation of the pro-apoptotic transcription factor p53 among other pathways in the case of 5-FU [34]. […] The effect of TMPyP4 on SW620 was not studied, as this cell line was not sensitive to this compound up to a 20 μM concentration.
Fig 3 Exposure to IQ3A compounds induces cell death, mainly by apoptosis in HCT116 cells. […] Results are expressed as the mean percentage (%) of viable, mid-apoptotic and dead cells ± SEM, of at least three different experiments, for A. IC50, and for B. IC65 compound concentrations. a, p < 0.05; b, p < 0.01 from DMSO (vehicle control); c, p < 0.05; and d, p < 0.01 from 5-FU. […]

melting point [°C]	SMILES	ΔTm (°C) T-Loop 1 μM [1] [°C]	ΔTm (°C) T-Loop 2 μM [1] [°C]	ΔTm (°C) HSP90A 1 μM [2] [°C]	ΔTm (°C) HSP90A 2 μM [2] [°C]	ΔTm (°C) KRAS21 1 μM [3] [°C]	ΔTm (°C) KRAS21 2 μM [3] [°C]	Selective growth inhibition of KRAS mutant HCT116 cells compared to primary rat hepatocytes [4] [fold]	IC50 [5] [µM]	HEK293T IC65 [5] [µM]	down-regulation of KRAS transcription (mRNA) ([6]; HCT116, 72 h) [%]	down-regulation of KRAS transcription (mRNA) ([6]; SW620, 72 h)	SW620 IC65 [7] [µM]	IC50 [7] [µM]	IC50 [8] [µM]	HCT116 IC65 [9] [µM]	Selective index (SI) = IC50 CCD-18co / IC50 HCT116 [9]	IC50 [9] [µM]	IC50 fold lower than that of 5-FU ([7]; SW620 cells) [fold]	induction of apoptosis / cell death [10]
159 to 164	O=C(OCCN1CCCC1)c1ccc2c(c1)c1nc3ccccc3c(OCCN3CCCC3)c1n2CCN1CCCC1 (as salt: salt) [1b]	–	–	–	–	–	–	–	–	–	–	–	–	–	–	–	–	–	–	–
141 to 145	O=C(OCCN1CCOCC1)c1ccc2c(c1)c1nc3ccccc3c(OCCN3CCOCC3)c1n2CCN1CCOCC1 (as salt: salt) [1c]	–	–	–	–	–	–	–	–	–	–	–	–	–	–	–	–	–	–	–
124 to 128	O=C(OCCCN1CCCCC1)c1ccc2c(c1)c1nc3ccccc3c(OCCCN3CCCCC3)c1n2CCCN1CCCCC1 (as salt: salt) [1d]	–	–	–	–	–	–	–	–	–	–	–	–	–	–	–	–	–	–	–
–	O=C(OCCN1CCCC1)c1ccc2c(c1)c1nc3ccccc3c(OCCN3CCCC3)c1n2CCN1CCCC1 [1b]	<2	6	12	16	5	10	–	–	–	–	–	–	–	–	–	–	–	–	–
–	O=C(OCCN1CCOCC1)c1ccc2c(c1)c1nc3ccccc3c(OCCN3CCOCC3)c1n2CCN1CCOCC1 [1c]	<2	<2	4	7	<2	<2	–	–	–	–	–	–	–	–	–	–	–	–	–
–	O=C(OCCCN1CCCCC1)c1ccc2c(c1)c1nc3ccccc3c(OCCCN3CCCCC3)c1n2CCCN1CCCCC1 [1d]	<2	10	15	21	9	18	–	–	–	–	–	–	–	–	–	–	–	–	–
–	CCN(CC)CCOC(=O)c1ccc2c(c1)c1c(c(=O)c3ccccc3n1CCN(CC)CC)n2CCN(CC)CC [2a]	<2	<2	11	15	4	7	100	0.67	0.94	~40	not significantly so	1.44	0.67	5.41	1.60	5.46	0.99	–	–
–	O=C(OCCN1CCCC1)c1ccc2c(c1)c1c(c(=O)c3ccccc3n1CCN1CCCC1)n2CCN1CCCC1 [2b]	3	6	14	19	10	16	–	–	–	–	–	–	–	–	–	–	–	–	–
–	O=C(OCCCN1CCCCC1)c1ccc2c(c1)c1c(c(=O)c3ccccc3n1CCCN1CCCCC1)n2CCCN1CCCCC1 [2d]	4	12	19	25	13	22	–	0.7	1.12	~40	not significantly so	0.45	0.28	2.18	0.58	5.45	0.4	~20	–
–	O=c1[nH]cc(F)c(=O)[nH]1 [5-FU, 5-fluorouracil, reference compound]	–	–	–	–	–	–	–	2.66	4.13	–	–	8.32	5.39	> 100	4.13	> 42	2.38	–	able to induce apoptosis in a dose-dependent manner
